Experimental data reported in paper PMC12203428, “Discovery of Clonixeril as a Sub-Femtomolar Modulator of the Human STING Receptor” (ACS Central Science, 2025).
Blank lines part the entries; values can stand above or below the molecule they belong to.

Columns and labels:
[1] = target: T1, hSTING CTD (STING R232 variant) (Homo sapiens, UniProt Q86WV6, H232R); assay: Microscale thermophoresis; type: binding; details: for Activity in MST assay: competition with 2′,3′-cGAMP
T1 construct: 6X-His tagged hSTING^WT, R232 variant, CTD protein was purchased; purchased Invivogen (USA) or Cayman Chemicals (USA)
Description: Small molecule affinities at subpicomolar concentrations are typically difficult to determine by MST due to the inability of the detector to measure differential movement of proteins when largely disproportionate ratios of protein to ligand are involved. […] Generally, an IC50 correlates well with a K D when a small molecule competes for binding with a natural substrate for a target protein.
The resulting mixture was centrifuged at 12,000 x RPM 10 min prior to use. […] The samples were run again at 30- and 45 min. Detection of the protein was performed using the blue detection channel with excitation power set to 100% and MST set to high allowing 3 s prior to MST on to check for initial fluorescence differences, 35 s for thermophoresis, and 3 s for regeneration after MST off. Analysis was performed using M.O. Affinity Analysis Software with difference between initial fluorescence measured in the first 5 s as compared with thermophoresis at 30 s at 16 different analyte concentrations ranging from 100 μM to 100 zM and exported into Graphpad Prism v.8 using a Log inhibitor versus response for parameter fit.

SUMO-hSTING CTD [2] = target: T2, SUMO-hSTING CTD (Homo sapiens, UniProt Q86WV6, H232R); assay: Dynamic light scattering of STING oligomerization; details: 50 nM STING CTD; S-isomer up to 500 fM; reviewer's reading
Description: (B) DLS was performed for 2 h (n = 960 measurements) with 50 nM STING exposed to analytes. […] Blue blocks indicate size counts as a percentage to overall mass over selected mass ranges. […] Measurements were made using a Malvern Zetasizer Nano ZS set to 40 measurements at 1 s/measurement and 24 runs.

[3] = tested on: p-IRF3 in HEK293S cells (hSTING pathway); assay: Phospho-IRF3 Western blot in HEK293S cells with diABZI3; type: cell-based, human; details: 100 fM compound, 100 nM diABZI3, preliminary
Description: HEK293T cells transfected with hSTINGWT cells were seeded in a 6-well plate in DMEM
(supplemented with 10% heat-inactivated fetal bovine serum, 1X Corning Penicillin-Streptomycin
solution and 0.01mg/mL Blasticidin). Upon reaching ~80% confluence, cells were pretreated with
varying concentrations of CXL in FBS-free DMEM for 2 hours. This was followed by treatment
with diABZI3 (100nM) for 1 hour. The cells were scraped, harvested by centrifugation at 1000 x g
for 3 mins. The resulting pellet is resuspended in 1X PBS with 1X Halt protease & phosphatase
inhibitor and 1% NP-40. Cell lysis was performed by probe sonication. The cell lysate is further
denatured in 1X SDS loading buffer by boiling for 10 mins and separated by SDS-PAGE (4-20%
gel). The separated proteins were electrically transferred to a PVDF membranes separately,
which was probed with primary (α-pIRF3, α-IRF3 & α-STING) and secondary (goat anti-rabbit IR
dye 680 & goat anti-mouse IR dye 800CW) antibodies. The blots were visualized using a LICOR
Image Analyzer. All the experiments were performed at least in duplicate.

STING = tested on: STING; design: method as in Ergun et al.; details: ref Ergun et al., cited from earlier work
SUMO-hSTING CTD [4] = target: T2, SUMO-hSTING CTD; assay: Isothermal titration calorimetry; type: binding; design: human STING (amino acid 155–343) was synthesized and subcloned into pET28a vector; made in house; host or cells: E. coli BL21(DE3)
Source text: In order to further explore the interaction between CXL and hSTING CTD, we employed Isothermal calorimetry (ITC) to measure the heat evolved accompanying CXL’s effect on SUMO-hSTING^WT CTD. […] In Figure A, we show the ITC data we obtained. […]. […] In Figure B, we also find that the binding isotherm is far from steady state or equilibrium, and thus, we could not obtain reliable thermodynamic parameters. Nonetheless, a significant amount of heat was released in the process of CXL interacting with the hSTING CTD. On the other hand, we were most interested in ITC measurements taken at femtomolar concentrations, given the biophysical experiments and in cellulo studies already described. Initial experiments treating the hSTING CTD with femtomolar concentrations of CXL were unsuccessful, likely due to the insensitivity of the instrument. […]. MicroCal ITC200 instrument (Malvern Pananalytical) was used to assess STING and CXL interactions. Both recombinantly purified STING domains (residues 155–343) containing a SUMO tag and CXL were buffer-exchanged and made in the same buffer composition, respectively, to avoid buffer mismatch. The same buffer cocktail was used in all ITC experiments, containing 25 mM HEPES (pH, 7.4), 150 mM NaCl, 5% glycerol, 0.5 mM TCEP, and 5% DMSO. STING protein from −80 °C aliquots was spun down at 12,000 RPM for 5–10 min before each run to remove any aggregates, diluted into the ITC buffer above (either as 40 μM STING alone or as 40 μM STING plus 20 μM 2,3-cGAMP), and loaded into the cell. CXL at various concentrations for different experiments was loaded into the syringe (Hamilton). For the control and reference, an ITC buffer devoid of CXL was used. ITC experiments were conducted at 25 °C using an initial 0.4 μL injection and 19 subsequent injections of 2 μL each at 150 s intervals. Heat of dilution (differential power) of the 19 injections resulting from the binding event was fitted into the nonlinear least-squares equation incorporated in the MicroCal ITC200 analysis software. The K D and other thermodynamic parameters were derived from curve fitting using MicroCal software.

STING CTD = target: STING CTD; design: method as in not given; details: ref not given; read-out: KD previously reported (ITC); cited from earlier work
His-hSTING CTD = target: T3, His-hSTING CTD (Homo sapiens, UniProt Q86WV6, H232R); assay: Surface plasmon resonance; type: binding; details: read-out: KD (SPR)
T3 construct: purchased Invivogen (USA) or Cayman Chemicals (USA)
Description: SPR was employed for binding measurements using the His-tagged hSTING^WT CDN domain. A GE Healthcare Biacore T200 was equipped with a Ni-NTA chip. […] The sensorgrams were analyzed using Biacore T200 Software 3.0 and steady state was measured at 4 s before injection stop, exported into Graphpad, and fit versus concentration using a one site specific binding model to calculate the apparent equilibrium dissociation constant (K D). Where appropriate, kinetics were measured using a 1:1 Langmuir binding model with R max set to local to obtain the association rate (K on), dissociation (K off)

[5] = tested on: IFN-β expression in HEK293 cells; assay: HEK293 real-time qPCR for IFN-β; details: 4 μM 2′,3′-cGAMP 3 h, positive control
Description: IFN-β expression levels were measured using real-time qPCR.
HEK293 cells were seeded at 700,000 cells per 60 mm plate confluency and treated 36 h later.

[6] = target: the molecule itself; assay: dynamic light scattering; 50 nM STING with 50 nM 2′,3′-cGAMP and a titrated range of analyte (CXL, CXN, H-151), HBS-P pH 7.4, 2 h
[7] = 500 μM c-diGMP to 40 μM hSTING CTD

T1 sequence (Q86WV6 153-340 H232R): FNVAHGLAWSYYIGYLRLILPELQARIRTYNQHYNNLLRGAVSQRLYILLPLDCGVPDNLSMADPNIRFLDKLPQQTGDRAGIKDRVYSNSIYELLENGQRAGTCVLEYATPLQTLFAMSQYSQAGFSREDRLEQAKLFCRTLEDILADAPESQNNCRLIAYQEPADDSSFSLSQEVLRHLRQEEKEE
T2 sequence (Q86WV6 155-343 H232R): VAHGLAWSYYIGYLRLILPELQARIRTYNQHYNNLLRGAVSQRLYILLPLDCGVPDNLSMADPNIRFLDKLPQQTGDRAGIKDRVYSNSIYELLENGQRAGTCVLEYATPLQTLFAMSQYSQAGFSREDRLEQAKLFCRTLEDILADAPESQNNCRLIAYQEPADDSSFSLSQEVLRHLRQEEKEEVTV
T3 sequence (Q86WV6 153-340 H232R): as the sequence (Q86WV6 153-340 H232R) above

Effect of enantiomers on protein aggregate size (SUMO-hSTING CTD [2]): slightly less potent | Activity in MST assay [1]: subfemtomolar activity
Molecule: Cc1c(Cl)cccc1Nc1ncccc1C(=O)OC[C@H](O)CO (single isomer, unassigned) [R-enantiomer, R-clonixeril]
Effect on p-IRF3 [3]: agonistic

Effect of enantiomers on protein aggregate size (SUMO-hSTING CTD [2]): no effect | Activity in MST assay [1]: an effect at higher concentrations
Molecule: Cc1c(Cl)cccc1Nc1ncccc1C(=O)OC[C@@H](O)CO (single isomer, unassigned) [S-enantiomer, S-clonixeril]
Effect on p-IRF3 [3]: no effect

ΔH0 (ITC) (SUMO-hSTING CTD [4]; [7]): -24.6 kcal/mol | ΔS0 (ITC) (SUMO-hSTING CTD [4]; [7]): −56.5 cal/mol/deg | Kd (SUMO-hSTING CTD [4]; read-out: KD (ITC)): 2170 nM | Kd (His-hSTING CTD): 4780 ± 1650 nM
Molecule: Nc1nc2c(ncn2C2OC3COP(=O)(O)OC4C(COP(=O)(O)OC3C2O)OC(n2cnc3c(=O)[nH]c(N)nc32)C4O)c(=O)[nH]1 (stereo not drawn) [c-diGMP, cyclic di-GMP, reference compound]
Hill coefficient for STING activation (STING): 2.6 | IC50 (STING; read-out: IC50 for inhibition of the action of 2′,3′-cGAMP): ~800 nM | Kd (STING CTD): 3700 nM

KD (Table S1, Thermophoresis) ([1]; +50 nM 23cGAMP): No shift
Molecule: Cc1cccc(Nc2ccccc2C(=O)OCC(O)CO)c1C (stereo not drawn) [MFE, mefenamic acid glycerol ester]
Activity in MST assay [1]: no indication of activity at any concentration below 1 μM

More lines, now with the values behind:

Molecule: Cc1c(Cl)cccc1Nc1ncccc1C(=O)OCCCCOC(=O)c1cccnc1Nc1cccc(Cl)c1C [Compound 14]
Activity in MST assay [1]: quite active

Molecule: Nc1nc2c(ncn2C2OC3COP(=O)(O)OC4C(COP(=O)(O)OC2C3O)OC(n2cnc3c(N)ncnc32)C4O)c(=O)[nH]1 (stereo not drawn) [2′,3′-cGAMP, cyclic guanosine-(2′→5′)-monophosphate-adenosine-(3′→5′)-monophosphate, reference compound]
Induction of IFN-β production [5]: 7.4 fold

B1: His-SUMO-TEV-hSTING CTD (domain or fragment, human, UniProt Q86WV6 155-343, looked up)
chain: VAHGLAWSYYIGYLRLILPELQARIRTYNQHYNNLLRGAVSQRLYILLPLDCGVPDNLSMADPNIRFLDKLPQQTGDHAGIKDRVYSNSIYELLENGQRAGTCVLEYATPLQTLFAMSQYSQAGFSREDRLEQAKLFCRTLEDILADAPESQNNCRLIAYQEPADDSSFSLSQEVLRHLRQEEKEEVTV
notes: human STING (stimulator of interferon genes), C-terminal domain, amino acids 155-343, wild type (R232) allele; a TEV site lies between SUMO and STING by the construct's name; Synthetic gene in pET28a; also called SUMO-hSTING CTD; SUMO-hSTING^WT CTD; source: E. coli BL21(DE3), purified (Ni-NTA); not shown: His6, N-terminal, kept; SUMO, N-terminal, kept
binding result [6]: binds
